The source of these data is PMC12735834, “Novel Trinorditerpene from Dysoxylum parasiticum (Osbeck) Kosterm: Leaf Extract with Cytotoxic, Antioxidant and α-Glucosidase Inhibitory Activities” (Molecules, 2025).

The target in the assay is α-glucosidase. Nature of the assay: colorimetric p-NPG hydrolysis assay, […] nm, triplicate. In kind it is biochemical, Saccharomyces cerevisiae.

In turn, “12-(3-carboxyfuran-2-yl)-trinorlabda-5,9-dien-15-oic acid [parasitic acid]” showed an IC50 of 36.29 ± 1.06 µg/mL.
